Values quoted from earlier work as cited in US20250312272A1, “PHARMACEUTICAL FORMULATIONS FOR ORAL ADMINISTRATION AND METHODS OF MAKING AND USING THE SAME” (Aaryen Pharma LLC, priority 2024, published 2025).
Structures can show the parent of a compound that is named as a salt.

Row | SMILES | solubility in water | solubility (descriptive term of Table 1) (in water)
1 | COc1ccc2c(c1)[C@]13CCCC[C@@H]1[C@H](C2)N(C)CC3 [dextromethorphan hydrobromide] | water soluble | –
2 | COc1ccccc1OCC(O)CO (centres unmarked) [guaifenesin] | – | sparingly soluble
